Experiments:
[1] = target: T1, c-MET kinase (Seq. ID No. 2), cMET WT (Homo sapiens, UniProt P08581); test: c-MET kinase assay (WT MET biochemical assay); conditions: for Fold potency decrease versus Example 1, cMET WT: relative to Example 1 = 1; for Fold potency decrease versus Example 2, cMET WT: relative to Example 2 = 1
T1 construct: c-MET (c-MET residues: 956-1390, from Invitrogen, catalogue #PV3143, 6 nM); purchased Invitrogen PV3143
Method: Activity of c-MET kinase (Seq. ID No. 2) was determined by following the production of ADP from the kinase reaction through coupling with the pyruvate kinase/lactate dehydrogenase system (e.g., Schindler et al. Science 2000, 289, pp. 1938-1942). In this assay, the oxidation of NADH (thus the decrease at A340 nm) was continuously monitored spectrophotometrically. The reaction mixture (100 μl) contained c-MET (c-MET residues: 956-1390, from Invitrogen, catalogue #PV3143, 6 nM), polyE4Y (1 mg/mL), MgCl2 (10 mM), pyruvate kinase (4 units), lactate dehydrogenase (0.7 units), phosphoenol pyruvate (1 mM), and NADH (0.28 mM) in 90 mM Tris buffer containing 0.25 mM DTT, 0.2% octyl-glucoside and 1% DMSO, pH 7.5. Test compounds were incubated with c-MET (Seq. ID No. 2) and other reaction reagents at 22° C. for 0.5 h before ATP (100 μM) was added to start the reaction. The absorption at 340 nm was monitored continuously for 2 hours at 30° C. on Polarstar Optima plate reader (BMG). The reaction rate was calculated using the 1.0 to 2.0 h time frame. Percent inhibition was obtained by comparison of reaction rate with that of a control (i.e., with no test compound). IC50 values were calculated from a series of percent inhibition values determined at a range of inhibitor concentrations using software routines as implemented in the GraphPad Prism software package.

[2] = target: MET (D1246H) Mutant (Homo sapiens, UniProt P08581, D1228H); test: Mutant MET kinase biochemical assay, D1246H; conditions: for Fold potency decrease versus Example 1, MET (D1246H) Mutant: relative to Example 1 = 1; for Fold potency decrease versus Example 2, MET (D1246H) Mutant: relative to Example 2 = 1
[3] = target: MET (D1246N) Mutant (Homo sapiens, UniProt P08581, D1228N); test: Mutant MET kinase biochemical assay, D1246N; conditions: for Fold potency decrease versus Example 1, MET (D1246N) Mutant: relative to Example 1 = 1; for Fold potency decrease versus Example 2, MET (D1246N) Mutant: relative to Example 2 = 1
Chain of MET (D1246N) Mutant (P08581 25-1408 isoform P08581-2 D1246N limits assumed): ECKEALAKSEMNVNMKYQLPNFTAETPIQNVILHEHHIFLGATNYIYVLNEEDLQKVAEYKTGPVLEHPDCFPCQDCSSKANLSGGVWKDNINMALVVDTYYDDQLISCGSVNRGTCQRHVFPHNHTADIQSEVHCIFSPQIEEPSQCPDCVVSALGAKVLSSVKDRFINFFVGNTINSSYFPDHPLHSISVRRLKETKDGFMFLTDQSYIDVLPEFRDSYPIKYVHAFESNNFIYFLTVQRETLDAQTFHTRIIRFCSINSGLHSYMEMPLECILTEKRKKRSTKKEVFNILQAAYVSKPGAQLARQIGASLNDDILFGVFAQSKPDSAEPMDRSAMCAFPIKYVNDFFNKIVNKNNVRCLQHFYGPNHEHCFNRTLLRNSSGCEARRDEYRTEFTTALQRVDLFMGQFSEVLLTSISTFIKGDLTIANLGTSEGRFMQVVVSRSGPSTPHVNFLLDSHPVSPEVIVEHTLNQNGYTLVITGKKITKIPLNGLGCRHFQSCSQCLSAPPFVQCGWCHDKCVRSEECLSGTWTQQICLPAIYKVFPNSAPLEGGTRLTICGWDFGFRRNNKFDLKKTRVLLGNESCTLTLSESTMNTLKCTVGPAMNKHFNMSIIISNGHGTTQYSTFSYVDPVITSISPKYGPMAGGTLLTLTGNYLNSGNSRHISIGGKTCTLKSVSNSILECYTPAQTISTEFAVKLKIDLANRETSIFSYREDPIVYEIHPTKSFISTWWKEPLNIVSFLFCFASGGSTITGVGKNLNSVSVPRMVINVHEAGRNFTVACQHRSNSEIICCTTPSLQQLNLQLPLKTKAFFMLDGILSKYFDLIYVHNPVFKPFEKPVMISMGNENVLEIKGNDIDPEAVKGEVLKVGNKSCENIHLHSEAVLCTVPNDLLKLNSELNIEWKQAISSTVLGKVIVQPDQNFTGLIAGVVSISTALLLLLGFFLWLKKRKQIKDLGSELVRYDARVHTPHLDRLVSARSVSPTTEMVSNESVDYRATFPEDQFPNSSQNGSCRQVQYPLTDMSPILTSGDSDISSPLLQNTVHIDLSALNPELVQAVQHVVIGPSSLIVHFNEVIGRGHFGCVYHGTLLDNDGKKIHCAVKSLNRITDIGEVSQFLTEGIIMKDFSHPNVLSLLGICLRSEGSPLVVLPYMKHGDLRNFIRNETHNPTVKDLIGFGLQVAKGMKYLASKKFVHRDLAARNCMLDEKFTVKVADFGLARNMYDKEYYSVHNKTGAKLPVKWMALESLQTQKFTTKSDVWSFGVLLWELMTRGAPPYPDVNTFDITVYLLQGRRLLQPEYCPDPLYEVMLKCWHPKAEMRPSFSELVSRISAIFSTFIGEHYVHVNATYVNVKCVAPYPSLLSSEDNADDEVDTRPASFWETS

[4] = target: MET (Y1248C) Mutant (Homo sapiens, UniProt P08581, Y1230C); test: Mutant MET kinase biochemical assay, Y1248C; conditions: for Fold potency decrease versus Example 1, MET (Y1248C) Mutant: relative to Example 1 = 1; for Fold potency decrease versus Example 2, MET (Y1248C) Mutant: relative to Example 2 = 1
Chain of MET (Y1248C) Mutant (P08581 25-1408 isoform P08581-2 Y1248C limits assumed): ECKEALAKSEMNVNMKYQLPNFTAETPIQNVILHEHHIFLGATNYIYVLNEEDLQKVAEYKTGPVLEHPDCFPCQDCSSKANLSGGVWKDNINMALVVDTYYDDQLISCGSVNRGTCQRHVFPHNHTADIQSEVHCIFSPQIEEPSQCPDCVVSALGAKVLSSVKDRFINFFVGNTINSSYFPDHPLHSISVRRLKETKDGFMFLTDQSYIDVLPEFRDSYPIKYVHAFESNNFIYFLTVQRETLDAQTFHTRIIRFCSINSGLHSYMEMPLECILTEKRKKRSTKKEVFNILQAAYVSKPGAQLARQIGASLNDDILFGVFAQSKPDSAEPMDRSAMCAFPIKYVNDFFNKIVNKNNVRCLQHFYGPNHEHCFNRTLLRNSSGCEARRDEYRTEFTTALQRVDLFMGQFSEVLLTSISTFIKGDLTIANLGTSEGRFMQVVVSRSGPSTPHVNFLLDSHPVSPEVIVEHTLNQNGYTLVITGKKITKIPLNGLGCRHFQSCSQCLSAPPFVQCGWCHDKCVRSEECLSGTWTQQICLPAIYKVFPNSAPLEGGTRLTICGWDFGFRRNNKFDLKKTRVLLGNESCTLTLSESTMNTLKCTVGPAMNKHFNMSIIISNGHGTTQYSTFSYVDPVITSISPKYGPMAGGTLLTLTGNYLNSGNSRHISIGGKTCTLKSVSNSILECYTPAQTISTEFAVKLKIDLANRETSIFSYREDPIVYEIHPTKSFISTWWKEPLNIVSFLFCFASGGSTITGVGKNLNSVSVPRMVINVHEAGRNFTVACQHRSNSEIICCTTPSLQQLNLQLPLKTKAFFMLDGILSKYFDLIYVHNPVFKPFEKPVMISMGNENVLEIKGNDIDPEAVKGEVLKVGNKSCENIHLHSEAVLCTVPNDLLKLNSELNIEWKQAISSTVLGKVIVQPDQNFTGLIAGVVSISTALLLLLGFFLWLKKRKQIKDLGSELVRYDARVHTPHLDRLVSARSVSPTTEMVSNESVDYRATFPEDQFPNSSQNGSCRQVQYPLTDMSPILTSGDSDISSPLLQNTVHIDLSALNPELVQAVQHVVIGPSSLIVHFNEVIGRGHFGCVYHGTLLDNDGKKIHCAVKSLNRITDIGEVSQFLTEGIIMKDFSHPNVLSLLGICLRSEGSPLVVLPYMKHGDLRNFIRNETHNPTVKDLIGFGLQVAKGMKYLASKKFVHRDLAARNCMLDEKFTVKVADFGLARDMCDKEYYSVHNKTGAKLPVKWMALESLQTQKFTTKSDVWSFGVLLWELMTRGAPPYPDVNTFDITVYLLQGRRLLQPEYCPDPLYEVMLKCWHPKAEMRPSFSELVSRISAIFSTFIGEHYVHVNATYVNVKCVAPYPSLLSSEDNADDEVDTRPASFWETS

[5] = target: MET (Y1248H) Mutant (Homo sapiens, UniProt P08581, Y1230H); test: Mutant MET kinase biochemical assay, Y1248H; conditions: for Fold potency decrease versus Example 1, MET (Y1248H) Mutant: relative to Example 1 = 1; for Fold potency decrease versus Example 2, MET (Y1248H) Mutant: relative to Example 2 = 1
[6] = target: T2, Phospho-MET in EBC-1 cells (Homo sapiens, UniProt P08581); test: EBC-1 Phospho-MET ELISA; type: cell-based
T2 construct: host or cells: EBC-1
Method: (§1) EBC-1 cells (catalog #JCRB0820) were obtained from the Japan Health Science Research Resources Bank, Osaka, Japan. Briefly, cells were grown in DMEM supplemented with 10% characterized fetal bovine serum (Invitrogen, Carlsbad, Calif.) at 37° C., 5% CO2, 95% humidity. Cells were allowed to expand until reaching 70-95% confluency at which point they were subcultured or harvested for assay use.
Fifteen thousand cells in DMEM supplemented with 0.5% characterized fetal bovine serum (FBS; Invitrogen, Carlsbad, Calif.) were added per well in a 96-well black clear bottom plate (Corning, Corning, N.Y.). Cells were then incubated overnight at 37 degrees Celsius, 5% CO2, 95% humidity. A serial dilution of test compound was dispensed into another 96-well black clear bottom plate (Corning, Corning, N.Y.) containing DMEM supplemented with 0.5% FBS. Diluted compound was then added to plates containing cells and incubated for 6 hours at 37 degrees Celsius, 5% CO2, 95% humidity. Cells were stimulated with 40 ng/mL HGF (R&D Systems, Minneapolis, Minn.) for 10 minutes, and then lysed. Phospho-MET in cell lysates was detected using the DuoSet IC Human Phospho-HGF R/c-MET ELISA (R&D Systems, Minneapolis, Minn.). Data was analyzed using Prism software (Graphpad, San Diego, Calif.) to calculate IC50 values.

[7] = target: T3, Phospho-MET in MKN-45 cells (Homo sapiens, UniProt P08581); test: MKN-45 Phospho-MET ELISA; type: cell-based
T3 construct: host or cells: MKN-45
T3 sequence (P08581 25-1390): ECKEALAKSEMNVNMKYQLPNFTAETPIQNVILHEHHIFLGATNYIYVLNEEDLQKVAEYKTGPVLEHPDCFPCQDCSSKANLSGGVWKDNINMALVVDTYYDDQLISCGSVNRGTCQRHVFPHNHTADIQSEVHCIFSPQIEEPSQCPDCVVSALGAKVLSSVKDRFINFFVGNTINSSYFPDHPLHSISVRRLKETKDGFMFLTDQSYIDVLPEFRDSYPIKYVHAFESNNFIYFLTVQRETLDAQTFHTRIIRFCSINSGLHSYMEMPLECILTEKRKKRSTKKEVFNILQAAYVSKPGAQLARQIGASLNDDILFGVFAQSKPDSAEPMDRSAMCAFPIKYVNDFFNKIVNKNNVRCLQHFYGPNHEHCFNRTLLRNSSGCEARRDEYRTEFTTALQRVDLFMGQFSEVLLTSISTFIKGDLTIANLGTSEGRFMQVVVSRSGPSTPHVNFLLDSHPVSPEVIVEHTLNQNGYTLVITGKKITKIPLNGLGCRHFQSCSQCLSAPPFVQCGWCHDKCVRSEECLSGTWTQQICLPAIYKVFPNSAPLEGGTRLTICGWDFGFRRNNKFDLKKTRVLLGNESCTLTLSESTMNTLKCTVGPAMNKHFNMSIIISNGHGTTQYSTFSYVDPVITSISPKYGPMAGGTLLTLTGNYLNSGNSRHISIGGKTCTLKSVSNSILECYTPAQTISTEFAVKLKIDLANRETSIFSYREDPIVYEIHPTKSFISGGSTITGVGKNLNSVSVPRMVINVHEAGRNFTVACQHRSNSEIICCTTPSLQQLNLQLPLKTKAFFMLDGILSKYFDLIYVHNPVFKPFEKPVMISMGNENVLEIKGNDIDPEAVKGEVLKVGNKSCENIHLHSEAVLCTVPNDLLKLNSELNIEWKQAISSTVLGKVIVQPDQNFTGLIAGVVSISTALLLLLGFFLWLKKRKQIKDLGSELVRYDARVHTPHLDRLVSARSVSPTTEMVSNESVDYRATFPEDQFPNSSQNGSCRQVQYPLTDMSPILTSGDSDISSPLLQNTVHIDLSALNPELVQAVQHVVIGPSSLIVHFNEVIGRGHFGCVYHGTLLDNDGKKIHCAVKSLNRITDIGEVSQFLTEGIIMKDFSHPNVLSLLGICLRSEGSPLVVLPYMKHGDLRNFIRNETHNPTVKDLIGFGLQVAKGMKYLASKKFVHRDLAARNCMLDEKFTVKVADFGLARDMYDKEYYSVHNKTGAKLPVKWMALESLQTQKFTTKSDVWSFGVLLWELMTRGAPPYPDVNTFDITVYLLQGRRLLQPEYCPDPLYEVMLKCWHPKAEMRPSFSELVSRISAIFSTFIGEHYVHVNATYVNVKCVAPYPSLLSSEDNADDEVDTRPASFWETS
Method: as §1, with “MKN-45” for “EBC-1”, “#JCRB0254)” for “#JCRB0820)”, “RPMI 1640 media” for “DMEM”
Twenty-five thousand cells in RPMI-1640 supplemented with 10% characterized fetal bovine serum (Invitrogen, Carlsbad, Calif.) were added per well in a 96-well black clear bottom plate (Corning, Corning, N.Y.). Cells were then incubated overnight at 37 degrees Celsius, 5% CO2, 95% humidity. Media was then aspirated and cells were washed with PBS. A serial dilution of test compound was dispensed into another 96-well black clear bottom plate (Corning, Corning, N.Y.) containing serum-free RPMI-1640. Compound was added to plates containing cells and incubated for 6 hours at 37 degrees Celsius, 5% CO2, 95% humidity. Cells were stimulated with 40 ng/mL HGF (R&D Systems, Minneapolis, Minn.) for 10 minutes, and then lysed. Phospho-MET in cell lysates was detected using the DuoSet IC Human Phospho-HGF R/c-MET ELISA (R&D Systems, Minneapolis, Minn.). Data was analyzed using Prism software (Graphpad, San Diego, Calif.) to calculate IC50 values.

[8] = test system: A549 cells; test: A549 HGF-stimulated MET-dependent cell migration assay; type: cell-based
[9] = test system: oncogenic Mutant MET kinase; test: various oncogenic Mutant MET kinase biochemical assays (summarised); conditions: range over columns 3-6; for Fold less potent than Example 1 in the various oncogenic Mutant MET kinase biochemical assays: relative to Example 1; for Fold less potent than Example 2 in the various oncogenic Mutant MET kinase biochemical assays: relative to Example 2
[10] = relative to Example 1 = 1, listed as the '229 Compound
[11] = relative to Example 2 = 1, listed as the '229 Compound

T1 sequence (P08581 with tags, fused parts or gaps): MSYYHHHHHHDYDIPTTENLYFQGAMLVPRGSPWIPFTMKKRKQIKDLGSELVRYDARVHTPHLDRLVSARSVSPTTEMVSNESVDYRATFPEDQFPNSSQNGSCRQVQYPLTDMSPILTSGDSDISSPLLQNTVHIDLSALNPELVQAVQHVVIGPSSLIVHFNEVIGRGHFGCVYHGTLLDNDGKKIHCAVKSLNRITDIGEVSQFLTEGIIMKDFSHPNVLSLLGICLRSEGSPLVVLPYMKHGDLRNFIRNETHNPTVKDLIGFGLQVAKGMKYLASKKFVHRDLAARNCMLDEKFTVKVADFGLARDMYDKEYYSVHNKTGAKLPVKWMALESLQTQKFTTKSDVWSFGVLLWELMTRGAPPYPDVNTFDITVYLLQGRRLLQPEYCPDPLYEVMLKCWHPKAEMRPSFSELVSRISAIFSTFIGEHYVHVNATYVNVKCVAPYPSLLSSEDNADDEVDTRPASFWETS

SMILES | Fold potency decrease versus Example 1, cMET WT [1] | Fold potency decrease versus Example 1, MET (D1246H) Mutant [2] | Fold potency decrease versus Example 1, MET (D1246N) Mutant [3] | Fold potency decrease versus Example 1, MET (Y1248C) Mutant [4] | Fold potency decrease versus Example 1, MET (Y1248H) Mutant [5] | Fold potency decrease versus Example 1, EBC-1 p-MET ([6]; relative to Example 1 = 1) | Fold potency decrease versus Example 1, MKN-45 p-MET ([7]; relative to Example 1 = 1) | Fold potency decrease versus Example 1, A549 MIG ([8]; relative to Example 1 = 1) | Fold potency decrease versus Example 2, cMET WT [1] | Fold potency decrease versus Example 2, MET (D1246H) Mutant [2] | Fold potency decrease versus Example 2, MET (D1246N) Mutant [3] | Fold potency decrease versus Example 2, MET (Y1248C) Mutant [4] | Fold potency decrease versus Example 2, MET (Y1248H) Mutant [5] | Fold potency decrease versus Example 2, EBC-1 p-MET ([6]; relative to Example 2 = 1) | Fold potency decrease versus Example 2, MKN-45 p-MET ([7]; relative to Example 2 = 1) | Fold potency decrease versus Example 2, A549 MIG ([8]; relative to Example 2 = 1) | Fold less potent than Example 1 in the various oncogenic Mutant MET kinase biochemical assays [9] | Fold less potent than Example 2 in the various oncogenic Mutant MET kinase biochemical assays [9] | further results
CCOc1ccn(-c2ccc(F)cc2)c(=O)c1C(=O)Nc1cc(F)c(Oc2ccnc(NC(C)=O)c2)cc1F [Example 1, N-(4-((2-acetamidopyridin-4-yl)oxy)-2,5-difluorophenyl)-4-ethoxy-1-(4-fluorophenyl)-2-oxo-1,2-dihydropyridine-3-carboxamide] | 1 × | 1 × | 1 × | 1 × | 1 × | 1 × | 1 × | 1 × | – | – | – | – | – | – | – | – | – | – | –
CCOc1ccn(-c2ccc(F)cc2)c(=O)c1C(=O)Nc1cc(F)c(Oc2ccnc(NC(=O)CC)c2)cc1F [Example 2, N-(2,5-difluoro-4-((2-propionamidopyridin-4-yl)oxy)phenyl)-4-ethoxy-1-(4-fluorophenyl)-2-oxo-1,2-dihydropyridine-3-carboxamide] | – | – | – | – | – | – | – | – | 1 × | 1 × | 1 × | 1 × | 1 × | 1 × | 1 × | 1 × | – | – | –
CCOc1ccn(-c2ccc(F)cc2)c(=O)c1C(=O)Nc1ccc(Oc2ccnc(N)c2Cl)c(F)c1 [The ′229 Compound] | 3.9× | 8.5× | 2× | 3.8× | 2.3× | 22.5× | 73.8× | 2.4× | 4.4× | 5.1× | 2.5× | 3.6× | 15.7× | 41.5× | 73.7× | 6.3× | 2.3-8.5 × | 2.5-15.7 × | Fold potency decrease versus Example 1, cMET WT ([1]; listed as the '229 Compound): 3.9 ×; Fold potency decrease versus Example 2, cMET WT ([1]; listed as the '229 Compound): 4.4 ×; Fold potency decrease versus Example 1, EBC-1 p-MET [6, 10]: 22.5 ×; Fold potency decrease versus Example 2, EBC-1 p-MET [6, 11]: 41.5 ×; Fold potency decrease versus Example 1, MKN-45 p-MET [7, 10]: 73.8 ×; Fold potency decrease versus Example 2, MKN-45 p-MET [7, 11]: 73.7 ×; Fold potency decrease versus Example 1, A549 MIG [8, 10]: 2.4 ×; Fold potency decrease versus Example 2, A549 MIG [8, 11]: 6.3 ×
CCOc1ccn(-c2ccc(F)cc2)c(=O)c1C(=O)Nc1cc(F)c(Oc2ccnc(N)c2)cc1F [Compound A, N-(4-((2-aminopyridin-4-yl)oxy)-2,5-difluorophenyl)-4-ethoxy-1-(4-fluorophenyl)-2-oxo-1,2-dihydropyridine-3-carboxamide] | 2.4 × | 6.7× | 4.4× | 6× | 2.6× | 11.7 × | 18.8 × | 3.4 × | 2.7 × | 4× | 5.7× | 5.7× | 18.3× | 21.5 × | 18.8 × | 8.9 × | 2.6-6.7 × | 4-18.3 × | –
